Test results taken from ChEMBL document CHEMBL1201862, “PubChem BioAssay data set” (2004).
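Growth conditions: 96-well plates. Treatment: test compound, 48 hours, 5 concentrations. Analysis: linear interpolation between bracketing concentrations; unreached endpoints set to highest concentration. GI50: concentration for 50% inhibition of growth.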 Active and inactive are the calls of the source. Cut-off read from the data, not from the text of the source: active = GI50 up to about 1.1 µM and inactive = higher.

What was measured:
Test in all cases: growth of human tumour cells (NCI), 48 h
SW-620 = system: SW-620
TK-10 = system: TK-10
MOLT-4 = system: MOLT-4
DU-145 = system: DU-145
HT-29 = system: HT-29
UACC-62 = system: UACC-62
CAKI-1 = system: CAKI-1
T47D = system: T47D
SF-295 = system: SF-295
Malme-3M = system: Malme-3M
IGROV-1 = system: IGROV-1
HOP-62 = system: HOP-62
HCT-15 = system: HCT-15
SF-268 = system: SF-268
CCRF-CEM = system: CCRF-CEM
786-0 = system: 786-0
SR = system: SR
OVCAR-8 = system: OVCAR-8
EKVX = system: EKVX
HL-60 = system: HL-60
MDA-N = system: MDA-N
KM12 = system: KM12
A549 = system: A549
LOX IMVI = system: LOX IMVI
SN12C = system: SN12C
UACC-257 = system: UACC-257
MCF7 = system: MCF7
K562 = system: K562
M14 = system: M14
PC-3 = system: PC-3
SK-MEL-28 = system: SK-MEL-28
RXF 393 = system: RXF 393
HCC 2998 = system: HCC 2998
NCI-H23 = system: NCI-H23
MDA-MB-231 = system: MDA-MB-231
SK-MEL-5 = system: SK-MEL-5
SK-OV-3 = system: SK-OV-3
RPMI-8226 = system: RPMI-8226
SNB-75 = system: SNB-75
NCI-H522 = system: NCI-H522
OVCAR-4 = system: OVCAR-4
A498 = system: A498
HCT-116 = system: HCT-116
SNB-19 = system: SNB-19
HOP-92 = system: HOP-92
COLO 205 = system: COLO 205
U-251 = system: U-251
OVCAR-5 = system: OVCAR-5
OVCAR-3 = system: OVCAR-3
NCI/ADR-RES = system: NCI/ADR-RES
Hs-578T = system: Hs-578T
MDA-MB-435 = system: MDA-MB-435
NCI-H460 = system: NCI-H460
SF-539 = system: SF-539
ACHN = system: ACHN
SK-MEL-2 = system: SK-MEL-2
NCI-H226 = system: NCI-H226
UO-31 = system: UO-31

In the case of `CC(C)(Oc1ccc2c(=O)cc(-c3ccccc3)oc2c1)C(=O)N1CCN(c2ccccc2)CC1`, the GI50 (SW-620) is reported as 6.64 µM (inactive), the GI50 (TK-10) is reported as 8.17 µM (inactive) and the GI50 (MOLT-4) is reported as 2.6 µM (inactive). For the same compound, the GI50 (DU-145) was 6.12 µM (inactive), the GI50 (HT-29) was 4.08 µM (inactive) and the GI50 (UACC-62) was 3.71 µM (inactive). The GI50 (CAKI-1) was 3.7 µM (inactive), the GI50 (T47D) was 3.2 µM (inactive) and the GI50 (SF-295) was 4.71 µM (inactive). The GI50 (Malme-3M) was 4.84 µM (inactive), the GI50 (IGROV-1) was > 10 µM (inactive) and the GI50 (HOP-62) was 5.55 µM (inactive). For the same compound, the GI50 (HCT-15) was 4.55 µM, the GI50 (SF-268) was 4.16 µM (inactive) and the GI50 (CCRF-CEM) was 3.15 µM (inactive). For the same compound, the GI50 (786-0) was 5.89 µM (inactive), the GI50 (SR) was 2.49 µM (inactive) and the GI50 (OVCAR-8) was 5.57 µM (inactive). For the same compound, the GI50 (EKVX) was 5.28 µM (inactive), the GI50 (HL-60) was 1.62 µM (inactive) and the GI50 (MDA-N) was 3.41 µM (inactive). For the same compound, the GI50 (KM12) was 3.42 µM (inactive), the GI50 (A549) was 4.95 µM (inactive) and the GI50 (LOX IMVI) was 5.5 µM (inactive). For the same compound, the GI50 (SN12C) was 5.74 µM (inactive), the GI50 (UACC-257) was 3.56 µM (inactive) and the GI50 (MCF7) was 3.23 µM (inactive). The GI50 (K562) was 3.17 µM (inactive), the GI50 (M14) was 3.64 µM (inactive) and the GI50 (PC-3) was 3.05 µM (inactive). The GI50 (SK-MEL-28) was 6.81 µM (inactive), the GI50 (RXF 393) was 1.47 µM (inactive) and the GI50 (HCC 2998) was 5.94 µM (inactive). For the same compound, the GI50 (NCI-H23) was 3.24 µM (inactive), the GI50 (MDA-MB-231) was 6.46 µM (inactive) and the GI50 (SK-MEL-5) was 4.54 µM (inactive). The GI50 (SK-OV-3) was > 10 µM (inactive), the GI50 (RPMI-8226) was 2.52 µM (inactive) and the GI50 (SNB-75) was 4.76 µM (inactive).
With `CC(=O)OCC(=O)[C@@]1(O)CC[C@H]2[C@@H]3CCC4=CC(=O)C=C[C@]4(C)[C@@]3(F)[C@@H](O)C[C@@]21C` [ISOFLUPREDONE ACETATE] the GI50 (PC-3) was 65.3 µM (inactive).
`Clc1ccc(-c2nn3c(C45CC6CC(CC(C6)C4)C5)nnc3s2)cc1` was tested, and the GI50 (SW-620) was > 100 µM (inactive), the GI50 (TK-10) was > 100 µM (inactive) and the GI50 (MOLT-4) was > 100 µM (inactive). For the same compound, the GI50 (DU-145) was > 100 µM (inactive), the GI50 (NCI-H522) was > 100 µM (inactive) and the GI50 (OVCAR-4) was 34.4 µM (inactive). The GI50 (HT-29) was > 100 µM (inactive), the GI50 (UACC-62) was > 100 µM (inactive) and the GI50 (CAKI-1) was > 100 µM (inactive). For the same compound, the GI50 (T47D) was > 100 µM (inactive), the GI50 (A498) was 50.2 µM (inactive) and the GI50 (SF-295) was > 100 µM (inactive). For the same compound, the GI50 (Malme-3M) was > 100 µM (inactive), the GI50 (IGROV-1) was > 100 µM (inactive) and the GI50 (HOP-62) was > 100 µM (inactive). The GI50 (HCT-15) was over 100 µM, the GI50 (SF-268) was > 100 µM (inactive) and the GI50 (CCRF-CEM) was > 100 µM (inactive). For the same compound, the GI50 (HCT-116) was 63.1 µM (inactive), the GI50 (786-0) was 35.7 µM (inactive) and the GI50 (SR) was > 100 µM (inactive). The GI50 (SNB-19) was > 100 µM (inactive), the GI50 (HOP-92) was > 100 µM (inactive) and the GI50 (COLO 205) was > 100 µM (inactive). The GI50 (EKVX) was > 100 µM (inactive), the GI50 (HL-60) was > 100 µM (inactive) and the GI50 (U-251) was > 100 µM (inactive). For the same compound, the GI50 (KM12) was > 100 µM (inactive), the GI50 (A549) was > 100 µM (inactive) and the GI50 (LOX IMVI) was > 100 µM (inactive). The GI50 (SN12C) was > 100 µM (inactive), the GI50 (OVCAR-5) was > 100 µM (inactive) and the GI50 (OVCAR-3) was 39.1 µM (inactive). For the same compound, the GI50 (NCI/ADR-RES) was > 100 µM (inactive), the GI50 (Hs-578T) was > 100 µM (inactive) and the GI50 (K562) was > 100 µM (inactive). For the same compound, the GI50 (M14) was > 100 µM (inactive), the GI50 (PC-3) was > 100 µM (inactive) and the GI50 (MDA-MB-435) was > 100 µM (inactive). The GI50 (NCI-H460) was > 100 µM (inactive), the GI50 (SF-539) was > 100 µM (inactive) and the GI50 (ACHN) was 69.5 µM (inactive). For the same compound, the GI50 (SK-MEL-28) was > 100 µM (inactive), the GI50 (RXF 393) was > 100 µM (inactive) and the GI50 (HCC 2998) was > 100 µM (inactive). The GI50 (SK-MEL-2) was > 100 µM (inactive), the GI50 (NCI-H23) was > 100 µM (inactive) and the GI50 (MDA-MB-231) was 55.6 µM (inactive). For the same compound, the GI50 (SK-MEL-5) was > 100 µM (inactive), the GI50 (NCI-H226) was > 100 µM (inactive) and the GI50 (UO-31) was > 100 µM (inactive). For the same compound, the GI50 (SK-OV-3) was > 100 µM (inactive), the GI50 (RPMI-8226) was > 100 µM (inactive) and the GI50 (SNB-75) was > 100 µM (inactive).
